# Measured values from a melting point compilation (Tetko et al.).
row,Structure (SMILES),melting point [°C]
1,N#Cc1ccc(S(=O)(=O)N2CCC(O)CC2)cc1,161 to 163
2,CC(C)(C)CCS(=O)(=O)Cl,33 to 35
3,Nc1nc(-c2ccc3c(c2)CC(=O)N3)cs1,249 to 251
4,Cc1cc(CO)ccc1Cl,42 to 44
5,O=C(c1ccc(Cl)c(Cl)c1)C1CC1,29 to 31
6,CC1CCC(=CC(=O)O)CC1 (stereo unspecified),61 to 63
7,N#Cc1ccc(CSc2ccccc2C(=O)O)cc1,208 to 210
8,O=C(O)c1nn(-c2ccc(F)cc2)c2c1CCCCC2,167 to 169
9,N#Cc1cc(Cl)ccc1CS(=O)(=O)Cl,106 to 108
10,O=C1CNC(=O)N1CCCl,114 to 116
11,C=CCNC(=S)N1CCOCC1,61 to 63
12,ClCc1cc(Br)c2c(c1)OCO2,100 to 102
13,Nc1cc(-c2ccccc2)ns1,159 to 161
14,CCCN1C(=O)CC(=O)NC1=S,127 to 129
15,NC1CCCN(c2cc(C(=O)O)ccn2)C1 (stereo unspecified),252 to 254
16,CN1CC(=O)N(CCCC(=O)O)C1=O,79 to 81
17,O=C(O)CSc1cccc(Br)c1,79 to 81
18,O=C(O)C1CCCN1C(=O)c1ccc2ccccc2c1O (stereo unspecified),197 to 199
19,COCCNC(=O)CC#N,78 to 80
20,O=C(O)c1cccnc1Nc1ccccc1F,215 to 217
21,O=C(O)C(c1ccccc1)N1CCCCC1=O (stereo unspecified),148 to 150
22,NC1CCN(CC(=O)Nc2ccccc2)CC1,75 to 77
23,CC(C)n1ncc2c(C(=O)O)cc(C3CC3)nc21,144 to 146
24,O=Cc1cnn(CC(F)(F)F)c1,56 to 58
25,CN1CCCc2cc(/C=C/C(=O)O)ccc21,169 to 171

row,Structure (SMILES),melting point [°C]
1,O=C(CCl)N(C1CCCCC1)C1CCS(=O)(=O)C1 (stereo unspecified),162 to 164
2,O=C(O)CCCNC(=O)c1ccc(F)cc1,93 to 95
3,O=C(CCl)c1cc(Cl)sc1Cl,43 to 45
4,COC(=O)c1cc(C)ccc1N,58 to 60
5,Nc1cccc(N2CCN(CCc3ccccc3)CC2)c1,96 to 98
6,CC(C)C(NC(N)=O)C(=O)O (stereo unspecified),203 to 207
7,CCC(=O)Nc1ccc(C(=O)CCl)cc1,104 to 106
8,COc1ccc(C=O)cc1C#N,119 to 121
9,Clc1cncc(N2CCOCC2)n1,114 to 116
10,COC(=O)c1c(O)cc(=O)n2c1CCC2,167 to 169
11,COc1cc(C=O)ccc1OCC#N,75 to 77
12,Nc1ccccc1-c1ccncc1,83 to 85
13,CCOC(=O)c1sc2nc(C)nc(Cl)c2c1C,145 to 147
14,COc1cc(Cl)ccc1S(=O)(=O)Cl,89 to 91
15,Nc1ccccc1S(=O)(=O)Nc1ccccc1,118 to 120
16,O=C1CCCc2cc[nH]c21,94 to 96
17,CC(C)COc1ccc(CC(=O)O)cc1,86 to 88
18,Fc1cc(CBr)c2ncccc2c1,96 to 98
19,O=c1[nH]cnc2cnc(Cl)cc12,309 to 311
20,O=S(=O)(Cl)c1cnc(Cl)cc1Cl,79 to 81
21,CC(C)c1nc(C(=O)O)nn1-c1c(Cl)cccc1Cl,179 to 181
22,O=C(O)CSc1nc(-c2ccccc2)no1,115 to 117
23,CCOC(Cn1cc(C(=O)O)nn1)OCC,138 to 140
24,CCCS(=O)(=O)Nc1cc(N)c(F)cc1F,95 to 97
25,NC(=NO)c1cc2ccccc2o1,183 to 185

row,Structure (SMILES),melting point [°C]
1,O=C(O)CCNC(=O)c1ccc(F)cc1,133 to 135
2,COC(=O)c1ccc(O)nc1C,222 to 224
3,CC1CN(CC(C)C(=O)NN)CC(C)O1 (stereo unspecified),70 to 72
4,CCC(=O)N1CCCC(C(=O)O)C1 (stereo unspecified),117 to 119
5,CS(=O)(=O)NC1(C(=O)O)CCCCC1,114 to 116
6,CCOc1ccc(S(=O)(=O)Cl)cc1,40 to 45
7,COc1cc(N)c(C(=O)O)cc1OC(F)F,168 to 170
8,Cc1c(C(=O)O)cnn1CCC#N,159 to 161
9,Nc1nc(-c2ccc3c(c2)OCCO3)cs1,180 to 182
10,Clc1cnc(N2CCNCC2)c(Cl)c1,59 to 61
11,O=c1cc(C(F)(F)F)[nH]c(=O)[nH]1,210 to 212
12,OC(c1c(F)cncc1Br)C1CCCCC1 (stereo unspecified),76 to 78
13,CS(=O)(=O)C(Cc1ccccc1)C(=O)O (stereo unspecified),116 to 118
14,O=C(Nc1sc2c(c1C(=O)O)CCCC2)c1cccnc1,239 to 241
15,COc1ccccc1-n1cc(-c2ccc(Cl)cc2Cl)nc1S,244 to 246
16,CC(=O)NCc1cccc(C(=O)O)c1,166 to 168
17,O=C(O)c1cccn1Cc1cccnc1,172 to 174
18,Nc1c(Br)c(=O)[nH]c(=O)n1Cc1ccccc1,235 to 237
19,O=C1CCc2cc(Cl)ccc2N1,162 to 164
20,COC(=O)N(C)c1ccccc1C(=O)O,138 to 140
21,O=[N+]([O-])c1ccc(S(=O)(=O)Cl)cn1,81 to 83
22,CC(C)Cn1cnnc1C1CCCN1 (stereo unspecified),54 to 56
23,Nc1cccc(-c2nc(C3CC3)n[nH]2)c1,154 to 156
24,Cc1nnnn1C(=Cc1ccccc1)C(=O)O,201 to 203
25,NC(=S)Cc1ccc(Br)cc1,146 to 148

# Continued, values first:
row,melting point [°C],Structure (SMILES)
1,114 to 116,Cc1ccc(-n2cc(S(=O)(=O)Cl)cn2)cc1S(=O)(=O)Cl
2,128 to 130,O=C(c1ccc(F)cc1)c1ncccn1
3,93 to 95,CC(C)(C)OC(=O)Nc1cc2c(cc1N)OCO2
4,79 to 81,Cc1c(CC#N)cccc1[N+](=O)[O-]
5,208 to 210,O=C(O)c1cn(CC(=O)N2CCCC2)nn1
6,138 to 140,O=C(O)C1CC(=O)N(CCOc2ccccc2Cl)C1 (stereo unspecified)
7,98 to 100,N#CCCN(C(=O)CCC(=O)O)c1ccccc1
8,156 to 158,Cc1nn(C)c(Cl)c1/C=C/C(=O)O
9,126 to 128,CS/C(=N\C#N)N1CCOCC1
10,126 to 128,CNc1ccc(Oc2ccccn2)cc1
11,124 to 126,O=Cc1ccc(-c2ccc(C(F)(F)F)cc2)s1
12,158 to 160,COCCNC(=O)C1CCNCC1
13,110 to 112,O=C1CSC(NC2CCCC2)=N1
14,182 to 187,O=C(CCl)c1ccc(C2CCCCC2)cc1
15,147 to 149,Clc1nc(-c2ccccc2)nc2scc(-c3ccccc3)c12
16,258 to 260,O=C(O)c1ccc(CN2C(=O)c3ccccc3C2=O)cc1
17,64 to 66,NC(=O)CCC1CCNCC1
18,37 to 39,O=C(c1cccc(F)c1)c1ccccn1
19,141 to 143,O=C(O)c1cc(OCC(F)(F)F)cc(OCC(F)(F)F)c1
20,169 to 171,CCCc1noc2nc(C)cc(C(=O)O)c12
21,98 to 100,NC1(C(F)(F)F)CCC(O)CC1 (stereo unspecified)
22,149 to 151,CC(C)Oc1ccc(S(=O)(=O)N2CCOCC2)cc1N
23,230 to 232,CC1CCC2(CC1)NC(=O)NC2=O (stereo unspecified)
24,92 to 94,O=S(=O)(F)c1ccc(Br)cn1

row,melting point [°C],Structure (SMILES)
1,92 to 94,COc1cc(C(=O)O)ccc1OCCC(C)C
2,118 to 122,CCOc1ccc(-n2c(C)cc(C(=O)CCl)c2C)cc1
3,223 to 225,O=C(O)c1n[nH]cc1[N+](=O)[O-]
4,218 to 220,NNc1ccc(S(=O)(=O)Nc2ccccn2)cn1
5,201 to 203,NC(=O)NC(C(=O)O)c1ccccc1 (stereo unspecified)
6,217 to 219,O=C(O)c1cccc(NS(=O)(=O)c2cc(Cl)ccc2Cl)c1
7,29 to 31,CC(C)c1noc(-c2ccc(Br)cc2)n1
8,157 to 159,CCN(CC)S(=O)(=O)c1ccc(N2CCCCC2)c(C(=O)O)c1
9,107 to 109,CC(C(=O)c1ccccc1)N1C(=O)CCC1=O (stereo unspecified)
10,91 to 93,COc1cccc(-c2n[nH]cc2C=O)c1
11,135 to 140,COc1ccc(O)c(N)c1
12,149 to 151,COCCOc1ccc(C(=O)O)cc1OC
13,112 to 114,COc1ccccc1CC(=O)NN
14,185 to 187,COC(=O)c1cnc2[nH]nc(C)c2c1
15,125 to 135,O=C(O)CN1CCCC1=O
16,114 to 116,CS(=O)(=O)Nc1ccc(N)cc1
17,81 to 83,COc1cc(C=O)cc2c1OCCO2
18,81 to 83,CCOC(=O)c1cc(C)nc2cc(C)nn12
19,159 to 161,CC(=O)Nc1cc(C)nn1CCC#N
20,67 to 69,Cc1cccc([N+](=O)[O-])c1I
21,154 to 156,O=C(O)c1nccnc1Sc1ccccc1
22,40 to 42,NC(c1ccccc1)c1ccncc1 (stereo unspecified)
23,279 to 281,N#CCc1nc2ccc(Br)cc2c(=O)[nH]1
24,183 to 185,Cc1ccc(S(=O)(=O)Nc2ccc(N)cc2)cc1

row,melting point [°C],Structure (SMILES)
1,59 to 61,CC(C)(C)c1ccccc1S(=O)(=O)Cl
2,162 to 165,Cc1c(C=O)c(=O)n(-c2ccccc2)n1C
3,69 to 71,N#CCC(=O)N(CC(F)(F)F)C1CC1
4,183 to 185,CC(=O)c1c(C)nsc1N
5,73 to 75,CC(C)(C)c1ccc2c(c1)C(O)CC2 (stereo unspecified)
6,246 to 248,O=C(O)CN1C(=O)Cc2ccccc2C1=O
7,151 to 153,NNc1cc(Cl)ncn1
8,228 to 230,NC(=O)C1CCN(S(N)(=O)=O)CC1
9,225 to 227,CSc1nccn1-c1cccc(C(=O)O)c1
10,172 to 174,O=C(O)Cc1cc(-c2ccccc2)on1
11,50 to 52,CCOc1cc(N)c(Br)cc1OCC
12,140 to 142,Cc1cccc(-c2nc(C)n[nH]2)c1
13,113 to 115,CC(=O)Nc1cccc(CO)c1
14,119 to 121,CNC(=O)c1cccc(CCC(=O)O)c1
15,193 to 195,O=C(O)c1cc2c(c(S(=O)(=O)Cl)c1)CCCC2
16,215 to 217,O=C(O)Cc1c[nH]c2ncccc12
17,204 to 206,O=C(Nc1ccc(N2CCOCC2)nc1)OCC(F)(F)F
18,176 to 178,O=Cc1c[nH]c2cc(F)ccc12
19,197 to 199,O=Cc1cnc2ncccn12
20,90 to 92,CC(O)(Cc1ccccc1)C(=O)O (stereo unspecified)
21,239 to 241,COC(=O)C=Cn1c(=O)ccn2ncnc12
22,114 to 121,O=C(O)CCc1c(-c2ccc(F)cc2)[nH]c2ccccc12
23,141 to 143,Nc1ccc(CC(=O)N2CCCc3ccccc32)cc1
